Assay [1] deals with T1, glucose dehydrogenase (GlucDH) (Bacillus subtilis, UniProt P12310). In words: SDS gel electrophoresis of GlucDH after storage with coenzyme. Here is the method:
Test conditions: MW, 10 220 kDa markers; 1: GlucDH/NAD, 5 weeks at 6° C.; 2: GlucDH/NAD, 5 weeks at 32° C./85% relative humidity; 3: GlucDH/cNAD, 5 weeks at 6° C.; 4: GlucDH/cNAD, 5 weeks at 32° C./85% relative humidity.
Test conditions: MW, 10 220 kDa markers; 1: GlucDH 8.5 mg/ml, NAD, 0 hours; 2: GlucDH 8.5 mg/ml, NAD, 22 hours; 3: GlucDH 8.5 mg/ml, NAD, 96 hours; 4: GlucDH 8.5 mg/ml, NAD, 118 hours; 5: GlucDH 8.5 mg/ml, NAD, 140 hours; 6: GlucDH 8.5 mg/ml, NAD, 188 hours; 7: GlucDH 8.5 mg/ml, NAD, 476 hours; 8: GlucDH 8.5 mg/ml, cNAD, 0 hours; 9: GlucDH 8.5 mg/ml, cNAD, 188 hours; 10: GlucDH 8.5 mg/ml, cNAD, 476 hours.

Assay [2] addresses glucose dehydrogenase (GlucDH), wild-type (Bacillus subtilis, UniProt P12310). Kind of assay: Residual activity of GlucDH after dry storage on film with coenzyme. Format: biochemical. Here is the method:
(§1) Carba-NAD (FIG. 1A) or NAD were added to the glucose-specific GlucDH. These formulations were in each case applied to Pokalon film (Lonza) and, after drying, stored under warm and moist conditions (32° C., 85% relative humidity). The reaction kinetics and the function plot were subsequently determined at regular intervals. In parallel, at each of the times of measurement a cNAD/NAD analysis and a determination of the residual activity of the enzyme were carried out.
The result of the determination of residual activity of the active GlucDH enzyme after 5 weeks at 32° C. and 85% relative humidity (FIG. 7A) is completely surprising. […] After 24 weeks at 32° C. and 85% relative humidity (FIG. 7B), the residual activity of the enzyme on stabilization with cNAD is still about 25%.

The target of assay [3] is T1, glucose dehydrogenase (GlucDH). Kind of assay: Reaction kinetics, function plot and dry blank value of GlucDH test film after storage. Format: biochemical. Here is the method:
as §1
However, a distinct difference in the kinetics plots is evident after 5 weeks.
There is also a distinct difference in the blank values (dry blank value before application of a blood sample), as is evident from FIG. 3.
The differing stability of glucose dehydrogenase in the presence of NAD and cNAD, respectively, is also evident from comparison of FIGS. 4 and 5.

The target in assay [4] is glucose dehydrogenase (Bacillus subtilis, UniProt P12310). Kind of assay: Electrochemical glucose determination with GlucDH, coenzyme and mediator (current). To be noted: 25 mM coenzyme; mediator 1-(3-carboxypropoxy)-5-ethylphenazinium trifluoromethanesulfonate. Here is the method:
FIG. 20 is a depiction of the current measured as a function of the glucose concentration in the electrochemical determination of glucose using glucose dehydrogenase in the presence of NAD and cNAD, respectively. Test conditions: 25 mM NAD and cNAD, respectively; 2.5 seconds delay; 5 seconds measurement time.
As alternative to photometry it is also possible to employ an electrochemical measurement for the purpose of determining analytes.

T1 sequence (P12310 whole entry): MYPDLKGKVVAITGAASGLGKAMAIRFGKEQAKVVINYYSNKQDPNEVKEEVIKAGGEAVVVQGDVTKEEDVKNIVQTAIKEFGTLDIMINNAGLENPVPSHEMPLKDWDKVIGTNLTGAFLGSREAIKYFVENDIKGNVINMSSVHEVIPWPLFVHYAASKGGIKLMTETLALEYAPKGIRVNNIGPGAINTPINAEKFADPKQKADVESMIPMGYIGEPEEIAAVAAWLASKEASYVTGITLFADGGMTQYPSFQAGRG
Sequence of glucose dehydrogenase (GlucDH), wild-type (P12310 whole entry): as above
Sequence of glucose dehydrogenase (P12310 whole entry): as above

Turning to `NC(=O)c1ccc[n+]([C@@H]2C[C@H](COP(=O)([O-])OP(=O)(O)OC[C@H]3O[C@@H](n4cnc5c(N)ncnc54)[C@H](O)[C@@H]3O)[C@@H](O)[C@H]2O)c1` [cNAD, carba-NAD], the “enzyme band in SDS gel” value in assay [1] (storage at 50° C., after 476 hours) was “only slight change”; in assay [1] (storage for 5 weeks at 32° C. and 85% relative humidity) it was “still identifiable as a band with the expected mobility”. Besides, the “residual activity of GlucDH enzyme” value in assay [2] (after 5 weeks at 32° C. and 85% relative humidity, versus samples stored in refrigerator with desiccant) is reported as 70%; in assay [2] (after 24 weeks at 32° C. and 85% relative humidity) it was “about 25%”. Further, the “function plot of GlucDH after storage” value in assay [3] (after 5 weeks at 32° C., 85% humidity) was “still in the bunch of previous measurements”; in assay [3] (over 24 weeks at 32° C., 85% humidity), “only slightly changed at high glucose concentrations”. For the same compound, the “kinetics plots of GlucDH after storage” value in assay [3] (after 5 weeks at 32° C., 85% relative humidity) is “remain virtually unchanged”. In addition, the “dry blank value (before application of blood sample)” value in assay [3] (up to 5 weeks at 32° C., 85% humidity) was “this does not occur”. Besides, in assay [4], the “current required to reoxidize the reduced mediator versus glucose concentration” value is recorded as “linearly dependent on the glucose concentration”.

(Values after patent publication US11220674B2, “Stabilization of dehydrogenases with stable coenzymes” (ROCHE DIABETES CARE, INC., priority 2009, dated 2022).)
